Test results taken from patent US4442044A, “Process for preparing monoesters and diesters of N-alkyl substituted amino methyl phosphonic acid” (priority 1983, dated 1984).

Columns and labels:
Test in all cases: post-emergent herbicidal activity, greenhouse
Type in all cases: in vivo
[1] = test system: Canada Thistle; settings: Table I, 2 WAT
Method in brief: (§1)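 Post-emergence foliar spray at tabulated application rates, using aliquots of a 1.0% stock in acetone, THF or water plus ~0.4% emulsifier, applied to 2–3-week-old greenhouse plants. Plant injury was rated relative to controls roughly two and four weeks after treatment.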

[2] = test system: Cocklebur; settings: 2 WAT
Method in brief: as §1

[3] = test system: Hemp Sesbania; settings: Table II, 2 WAT
Method in brief: as §1

[4] = test system: Morningglory; settings: 2 WAT
Method in brief: as §1

[5] = test system: Panicum Spp; settings: Table II, 2 WAT
Method in brief: as §1

[6] = test system: Velvetleaf; settings: 2 WAT
Method in brief: as §1

[7] = test system: Johnsongrass; settings: Table I, 2 WAT
Method in brief: as §1

[8] = test system: Soybean; settings: Table II, 2 WAT
Method in brief: as §1

[9] = test system: Wheat; settings: Table II, 2 WAT
Method in brief: as §1

[10] = test system: Crabgrass; settings: Table II, 2 WAT
Method in brief: as §1

[11] = test system: Downy Brome; settings: 2 WAT
Method in brief: as §1

[12] = test system: Rice; settings: Table II, 2 WAT
Method in brief: as §1

[13] = test system: Smartweed; settings: 2 WAT
Method in brief: as §1

[14] = test system: Barnyardgrass; settings: 2 WAT
Method in brief: as §1

[15] = test system: Quackgrass; settings: Table I, 2 WAT
Method in brief: as §1

[16] = test system: Wild Buckwheat; settings: Table II, 2 WAT
Method in brief: as §1

[17] = test system: Sugar Beet; settings: Table II, 2 WAT
Method in brief: as §1

[18] = test system: Lambsquarters; settings: 2 WAT
Method in brief: as §1

[19] = test system: Sorghum; settings: Table II, 2 WAT
Method in brief: as §1

[20] = test system: Yellow Nutsedge; settings: Table I, 2 WAT
Method in brief: as §1

Q: `CCOC(=O)CNCP(=O)(OCC(=O)OCC)OCC(=O)OCC` [Example 13, glycine, N-[bis(ethoxycarbonylmethoxy)phosphinylmethyl]-, ethyl ester] was tested. Which “post-emergent herbicidal activity index” value ([1]; 5.6 kg/h) did it give?
A: 0 (0-24% control)

Q: What about the “post-emergent herbicidal activity index” value ([1]; 11.2 kg/h) of the same compound?
A: 0 (0-24% control)

Q: And the “post-emergent herbicidal activity index” value ([2]; Table I, 5.6 kg/h)?
A: 0 (0-24% control)

Q: And the “post-emergent herbicidal activity index” value ([2]; Table I, 11.2 kg/h)?
A: 0 (0-24% control)

Q: And the “post-emergent herbicidal activity index” value ([2]; Table II, 0.28 kg/h)?
A: 0 (0-24% control)

Q: And the “post-emergent herbicidal activity index” value ([2]; Table II, 1.12 kg/h)?
A: 0 (0-24% control)

Q: And the “post-emergent herbicidal activity index” value ([2]; Table II, 5.6 kg/h)?
A: 1 (25-49% control)

Q: And the “post-emergent herbicidal activity index” value ([3]; 0.28 kg/h)?
A: 0 (0-24% control)

Q: What about the “post-emergent herbicidal activity index” value ([3]; 1.12 kg/h) of the same compound?
A: 1 (25-49% control)

Q: And the “post-emergent herbicidal activity index” value ([4]; Table I, 5.6 kg/h)?
A: 0 (0-24% control)

Q: What about the “post-emergent herbicidal activity index” value ([4]; Table I, 11.2 kg/h) of the same compound?
A: 1 (25-49% control)

Q: And the “post-emergent herbicidal activity index” value ([4]; Table II, 0.28 kg/h)?
A: 0 (0-24% control)

Q: What about the “post-emergent herbicidal activity index” value ([4]; Table II, 1.12 kg/h) of the same compound?
A: 0 (0-24% control)

Q: What about the “post-emergent herbicidal activity index” value ([4]; Table II, 5.6 kg/h) of the same compound?
A: 1 (25-49% control)

Q: And the “post-emergent herbicidal activity index” value ([5]; 0.28 kg/h)?
A: 0 (0-24% control)

Q: What about the “post-emergent herbicidal activity index” value ([5]; 1.12 kg/h) of the same compound?
A: 0 (0-24% control)

Q: And the “post-emergent herbicidal activity index” value ([5]; 5.6 kg/h)?
A: 0 (0-24% control)

Q: And the “post-emergent herbicidal activity index” value ([6]; Table I, 5.6 kg/h)?
A: 0 (0-24% control)

Q: What about the “post-emergent herbicidal activity index” value ([6]; Table I, 11.2 kg/h) of the same compound?
A: 0 (0-24% control)

Q: And the “post-emergent herbicidal activity index” value ([6]; Table II, 0.28 kg/h)?
A: 0 (0-24% control)

Q: And the “post-emergent herbicidal activity index” value ([6]; Table II, 1.12 kg/h)?
A: 0 (0-24% control)

Q: And the “post-emergent herbicidal activity index” value ([6]; Table II, 5.6 kg/h)?
A: 1 (25-49% control)

Q: What about the “post-emergent herbicidal activity index” value ([7]; 5.6 kg/h) of the same compound?
A: 0 (0-24% control)

Q: And the “post-emergent herbicidal activity index” value ([7]; 11.2 kg/h)?
A: 0 (0-24% control)

Q: And the “post-emergent herbicidal activity index” value ([8]; 0.28 kg/h)?
A: 0 (0-24% control)

Q: What about the “post-emergent herbicidal activity index” value ([8]; 1.12 kg/h) of the same compound?
A: 0 (0-24% control)

Q: What about the “post-emergent herbicidal activity index” value ([8]; 5.6 kg/h) of the same compound?
A: 1 (25-49% control)

Q: And the “post-emergent herbicidal activity index” value ([9]; 0.28 kg/h)?
A: 0 (0-24% control)

Q: What about the “post-emergent herbicidal activity index” value ([9]; 1.12 kg/h) of the same compound?
A: 0 (0-24% control)

Q: What about the “post-emergent herbicidal activity index” value ([9]; 5.6 kg/h) of the same compound?
A: 2 (50-74% control)

Q: And the “post-emergent herbicidal activity index” value ([10]; 0.28 kg/h)?
A: 0 (0-24% control)

Q: What about the “post-emergent herbicidal activity index” value ([10]; 1.12 kg/h) of the same compound?
A: 0 (0-24% control)

Q: And the “post-emergent herbicidal activity index” value ([10]; 5.6 kg/h)?
A: 3 (75-99% control)

Q: And the “post-emergent herbicidal activity index” value ([11]; Table I, 5.6 kg/h)?
A: 0 (0-24% control)

Q: And the “post-emergent herbicidal activity index” value ([11]; Table I, 11.2 kg/h)?
A: 0 (0-24% control)

Q: And the “post-emergent herbicidal activity index” value ([11]; Table II, 0.28 kg/h)?
A: 0 (0-24% control)

Q: What about the “post-emergent herbicidal activity index” value ([11]; Table II, 1.12 kg/h) of the same compound?
A: 0 (0-24% control)

Q: And the “post-emergent herbicidal activity index” value ([11]; Table II, 5.6 kg/h)?
A: 0 (0-24% control)

Q: And the “post-emergent herbicidal activity index” value ([12]; 0.28 kg/h)?
A: 0 (0-24% control)

Q: And the “post-emergent herbicidal activity index” value ([12]; 1.12 kg/h)?
A: 0 (0-24% control)

Q: What about the “post-emergent herbicidal activity index” value ([12]; 5.6 kg/h) of the same compound?
A: 0 (0-24% control)

Q: What about the “post-emergent herbicidal activity index” value ([13]; Table I, 5.6 kg/h) of the same compound?
A: 0 (0-24% control)

Q: And the “post-emergent herbicidal activity index” value ([13]; Table I, 11.2 kg/h)?
A: 0 (0-24% control)

Q: What about the “post-emergent herbicidal activity index” value ([13]; Table II, 0.28 kg/h) of the same compound?
A: 0 (0-24% control)

Q: What about the “post-emergent herbicidal activity index” value ([13]; Table II, 1.12 kg/h) of the same compound?
A: 0 (0-24% control)

Q: What about the “post-emergent herbicidal activity index” value ([13]; Table II, 5.6 kg/h) of the same compound?
A: 1 (25-49% control)

Q: And the “post-emergent herbicidal activity index” value ([14]; Table I, 5.6 kg/h)?
A: 0 (0-24% control)

Q: What about the “post-emergent herbicidal activity index” value ([14]; Table I, 11.2 kg/h) of the same compound?
A: 0 (0-24% control)

Q: And the “post-emergent herbicidal activity index” value ([14]; Table II, 0.28 kg/h)?
A: 0 (0-24% control)

Q: What about the “post-emergent herbicidal activity index” value ([14]; Table II, 1.12 kg/h) of the same compound?
A: 0 (0-24% control)

Q: And the “post-emergent herbicidal activity index” value ([14]; Table II, 5.6 kg/h)?
A: 1 (25-49% control)

Q: And the “post-emergent herbicidal activity index” value ([15]; 5.6 kg/h)?
A: 1 (25-49% control)

Q: And the “post-emergent herbicidal activity index” value ([15]; 11.2 kg/h)?
A: 0 (0-24% control)

Q: And the “post-emergent herbicidal activity index” value ([16]; 0.28 kg/h)?
A: 0 (0-24% control)

Q: And the “post-emergent herbicidal activity index” value ([16]; 1.12 kg/h)?
A: 0 (0-24% control)

Q: And the “post-emergent herbicidal activity index” value ([16]; 5.6 kg/h)?
A: 0 (0-24% control)

Q: And the “post-emergent herbicidal activity index” value ([17]; 0.28 kg/h)?
A: 0 (0-24% control)

Q: What about the “post-emergent herbicidal activity index” value ([17]; 1.12 kg/h) of the same compound?
A: 0 (0-24% control)

Q: And the “post-emergent herbicidal activity index” value ([17]; 5.6 kg/h)?
A: 0 (0-24% control)

Q: What about the “post-emergent herbicidal activity index” value ([18]; Table I, 11.2 kg/h) of the same compound?
A: 0 (0-24% control)

Q: And the “post-emergent herbicidal activity index” value ([18]; Table II, 1.12 kg/h)?
A: 0 (0-24% control)

Q: And the “post-emergent herbicidal activity index” value ([19]; 0.28 kg/h)?
A: 0 (0-24% control)

Q: What about the “post-emergent herbicidal activity index” value ([19]; 1.12 kg/h) of the same compound?
A: 0 (0-24% control)

Q: And the “post-emergent herbicidal activity index” value ([19]; 5.6 kg/h)?
A: 1 (25-49% control)

Q: What about the “post-emergent herbicidal activity index” value ([20]; 5.6 kg/h) of the same compound?
A: 0 (0-24% control)

Q: And the “post-emergent herbicidal activity index” value ([20]; 11.2 kg/h)?
A: 0 (0-24% control)
